Laboratory results from US20110212968A1, “PHENETHYLAMIDE DERIVATIVES AND THEIR HETEROCYCLIC ANALOGUES” (priority 2008, published 2011).

Assays:
[1] = biological target: T1, human orexin-1 receptor (Homo sapiens, UniProt O43613); test: Intracellular calcium measurement (FLIPR Tetra), orexin receptor antagonistic activity, OX1; type: cell-based; details: CHO cells expressing human orexin-1 receptor, 3 nM orexin-A, conditions B
T1 construct: expressed in transfected cells; host or cells: CHO (Chinese hamster ovary) cells, kept under G418 selection
T1 sequence (O43613 1-425): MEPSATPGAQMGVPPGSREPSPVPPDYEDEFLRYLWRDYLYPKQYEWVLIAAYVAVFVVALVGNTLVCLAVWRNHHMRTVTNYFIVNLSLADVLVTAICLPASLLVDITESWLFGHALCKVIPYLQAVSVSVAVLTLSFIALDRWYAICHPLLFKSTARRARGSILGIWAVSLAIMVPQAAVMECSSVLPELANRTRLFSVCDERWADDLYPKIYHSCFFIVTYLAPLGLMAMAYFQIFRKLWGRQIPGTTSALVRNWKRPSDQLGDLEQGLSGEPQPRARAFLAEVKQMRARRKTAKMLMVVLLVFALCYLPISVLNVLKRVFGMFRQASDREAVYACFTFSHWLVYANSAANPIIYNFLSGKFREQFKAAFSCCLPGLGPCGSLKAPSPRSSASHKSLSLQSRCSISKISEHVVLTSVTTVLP
Procedure, shortened: (§1)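 Recombinant CHO cells expressing human OX1 or OX2, loaded with fluo-4 AM plus probenecid, were preincubated with antagonist 10 min, then stimulated with 3 nM human orexin-A. Peak fluorescence was compared with vehicle; IC50 derived, sometimes normalized to an on-plate reference compound; two pipetting/cell-splitting conditions were used.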

[2] = biological target: T2, human orexin-2 receptor (Homo sapiens, UniProt O43614); test: Intracellular calcium measurement (FLIPR Tetra), orexin receptor antagonistic activity, OX2; type: cell-based; details: CHO cells expressing human orexin-2 receptor, 3 nM orexin-A, conditions B
T2 construct: expressed in transfected cells; host or cells: CHO (Chinese hamster ovary) cells, kept under G418 selection
T2 sequence (O43614 1-444): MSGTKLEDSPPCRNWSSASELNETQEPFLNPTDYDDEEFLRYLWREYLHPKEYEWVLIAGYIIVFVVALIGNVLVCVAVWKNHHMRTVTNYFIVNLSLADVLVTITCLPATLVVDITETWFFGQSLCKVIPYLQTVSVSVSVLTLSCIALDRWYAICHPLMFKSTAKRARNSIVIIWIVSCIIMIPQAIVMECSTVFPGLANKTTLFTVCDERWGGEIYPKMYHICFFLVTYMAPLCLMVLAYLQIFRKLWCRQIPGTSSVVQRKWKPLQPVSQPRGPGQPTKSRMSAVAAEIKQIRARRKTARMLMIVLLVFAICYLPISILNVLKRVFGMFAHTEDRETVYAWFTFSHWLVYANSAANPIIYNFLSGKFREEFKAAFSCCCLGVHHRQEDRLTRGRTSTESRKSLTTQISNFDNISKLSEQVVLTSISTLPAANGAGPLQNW
Procedure, shortened: as §1

[3] = normalized (*) using IC50 of on-plate reference compound

SMILES: Cc1ccc(-c2nccnc2C(=O)N(CCc2c[nH]c3cc(Cl)ccc23)CC2CC2)cc1C [Example 331, 3-(3,4-Dimethyl-phenyl)-pyrazine-2-carboxylic acid [2-(6-chloro-1H-indol-3-yl)-ethyl]-cyclopropylmethyl-amide]
- IC50 [1, 3]: 0.062 µM
- IC50 [2, 3]: 0.022 µM

SMILES: Cc1ccc(-c2nccnc2C(=O)N(CCc2c[nH]c3c(C)cccc23)CC2CC2)cc1C [Example 337, 3-(3,4-Dimethyl-phenyl)-pyrazine-2-carboxylic acid cyclopropylmethyl-[2-(7-methyl-1H-indol-3-yl)-ethyl]-amide]
- IC50 [1, 3]: 0.016 µM
- IC50 [2, 3]: 0.005 µM

SMILES: Cc1ccc(-c2nccnc2C(=O)N(CCc2c[nH]c3c(F)cccc23)CC2CC2)cc1C [Example 340, 3-(3,4-Dimethyl-phenyl)-pyrazine-2-carboxylic acid cyclopropylmethyl-[2-(7-fluoro-1H-indol-3-yl)-ethyl]-amide]
- IC50 [1, 3]: 0.099 µM
- IC50 [2, 3]: 0.053 µM

SMILES: COc1ccc(-c2sc(C)nc2C(=O)N(CCc2cn(C)c3ccccc23)CC2CC2)cn1 [Example 341, 5-(6-Methoxy-pyridin-3-yl)-2-methyl-thiazole-4-carboxylic acid cyclopropylmethyl-[2-(1-methyl-1H-indol-3-yl)-ethyl]-amide]
- IC50 [1, 3]: 0.018 µM
- IC50 [2, 3]: 0.036 µM

SMILES: COc1ccc(-c2sc(C)nc2C(=O)N(CCc2c[nH]c3cc(F)ccc23)CC2CC2)cn1 [Example 350, 5-(6-Methoxy-pyridin-3-yl)-2-methyl-thiazole-4-carboxylic acid cyclopropylmethyl-[2-(6-fluoro-1H-indol-3-yl)-ethyl]-amide]
- IC50 [1, 3]: 0.004 µM
- IC50 [2, 3]: 0.017 µM

SMILES: COc1ccc(-c2cccnc2C(=O)N(CCc2cn(C)c3ccccc23)CC2CC2)cn1 [Example 352, 6′-Methoxy-[3,3′]bipyridinyl-2-carboxylic acid cyclopropylmethyl-[2-(1-methyl-1H-indol-3-yl)-ethyl]-amide]
- IC50 [1, 3]: 0.02 µM
- IC50 [2, 3]: 0.037 µM

SMILES: COc1ccc(-c2cccnc2C(=O)N(CCc2c[nH]c3cc(Cl)ccc23)CC2CC2)cn1 [Example 353]
- IC50 [1, 3]: 0.087 µM
- IC50 [2, 3]: 0.023 µM

SMILES: COc1ccc(-c2cccnc2C(=O)N(CCc2c[nH]c3ccc(C)cc23)CC2CC2)cn1 [Example 357]
- IC50 [1, 3]: 0.014 µM
- IC50 [2, 3]: 0.03 µM

SMILES: COc1ccc(-c2cccnc2C(=O)N(CCc2c[nH]c3cc(F)ccc23)CC2CC2)cn1 [Example 361]
- IC50 [1, 3]: 0.035 µM
- IC50 [2, 3]: 0.06 µM

SMILES: COc1ccc2nc(CCN(CC3CC3)C(=O)c3ncccc3-c3ccc(OC)nc3)[nH]c2c1 [Example 371, 6′-Methoxy-[3,3′]bipyridinyl-2-carboxylic acid cyclopropylmethyl-[2-(6-methoxy-1H-benzoimidazol-2-yl)-ethyl]-amide]
- IC50 [1, 3]: 1.86 µM
- IC50 [2, 3]: 0.089 µM

SMILES: Cc1ccc(-c2nccnc2C(=O)N(CCc2nc3cc(C)c(C)cc3[nH]2)CC2CC2)cc1C [Example 374, 3-(3,4-Dimethyl-phenyl)-pyrazine-2-carboxylic acid cyclopropylmethyl-[2-(5,6-dimethyl-1H-benzoimidazol-2-yl)-ethyl]-amide]
- IC50 [1, 3]: 0.102 µM
- IC50 [2, 3]: 0.035 µM

SMILES: Cc1ccc(-c2sc(N(C)C)nc2C(=O)N(CCc2nc3cc(C)c(C)cc3[nH]2)CC2CC2)cc1C [Example 377, 2-Dimethylamino-5-(3,4-dimethyl-phenyl)-thiazole-4-carboxylic acid cyclopropylmethyl-[2-(5,6-dimethyl-1H-benzoimidazol-2-yl)-ethyl]-amide]
- IC50 [1, 3]: 0.114 µM
- IC50 [2, 3]: 0.261 µM

SMILES: COc1ccc(-c2sc(C)nc2C(=O)N(CCc2c[nH]c3cc4c(cc23)OCO4)CC2CC2)cn1 [Example 382, 5-(6-Methoxy-pyridin-3-yl)-2-methyl-thiazole-4-carboxylic acid cyclopropylmethyl-[2-(5H-[1,3]dioxolo[4,5-f]indol-7-yl)-ethyl]-amide]
- IC50 [1, 3]: 0.427 µM
- IC50 [2, 3]: 0.012 µM

SMILES: COc1ccc(CCN(CC2CC2)C(=O)c2ccncc2-c2cccc(C)c2)cc1OC [Example 386, N-Cyclopropylmethyl-N-[2-(3,4-dimethoxy-phenyl)-ethyl]-3-m-tolyl-isonicotinamide]
- IC50 [1]: 0.234 µM
- IC50 [2]: 0.005 µM

SMILES: COc1cccc(-c2cnccc2C(=O)N(CCc2ccc(OC)c(OC)c2)CC2CC2)c1 [Example 389, N-Cyclopropylmethyl-N-[2-(3,4-dimethoxy-phenyl)-ethyl]-3-(3-methoxy-phenyl)-isonicotinamide]
- IC50 [1]: 0.282 µM
- IC50 [2]: 0.006 µM

SMILES: COc1ccc(CCN(CC2CC2)C(=O)c2ncccc2-c2cccc(C)c2)cc1OC [Example 390, 3-m-Tolyl-pyridine-2-carboxylic acid cyclopropylmethyl-[2-(3,4-dimethoxy-phenyl)-ethyl]-amide]
- IC50 [1]: 0.182 µM
- IC50 [2]: 0.004 µM

SMILES: COc1ccc(CCN(CC2CC2)C(=O)c2ncccc2-c2ccc(C)cc2)cc1OC [Example 391]
- IC50 [1]: 0.388 µM
- IC50 [2]: 0.004 µM

SMILES: COc1cccc(-c2cccnc2C(=O)N(CCc2ccc(OC)c(OC)c2)CC2CC2)c1 [Example 393, 3-(3-Methoxy-phenyl)-pyridine-2-carboxylic acid cyclopropyl-methyl-[2-(3,4-dimethoxy-phenyl)-ethyl]-amide]
- IC50 [1]: 0.108 µM
- IC50 [2]: 0.003 µM

SMILES: COc1ccc(CCN(CC2CC2)C(=O)c2cccnc2-c2cccc(C)c2)cc1OC [Example 394, N-Cyclopropylmethyl-N-[2-(3,4-dimethoxy-phenyl)-ethyl]-2-m-tolyl-nicotinamide]
- IC50 [1]: 0.156 µM
- IC50 [2]: 0.004 µM

SMILES: COc1ccc(CCN(CC2CC2)C(=O)c2cccnc2-c2ccc(C)cc2)cc1OC [Example 395, N-Cyclopropylmethyl-N-[2-(3,4-dimethoxy-phenyl)-ethyl]-2-p-tolyl-nicotinamide]
- IC50 [1]: 0.286 µM
- IC50 [2]: 0.01 µM

SMILES: COc1cccc(-c2ncccc2C(=O)N(CCc2ccc(OC)c(OC)c2)CC2CC2)c1 [Example 397, N-Cyclopropylmethyl-N-[2-(3,4-dimethoxy-phenyl)-ethyl]-2-(3-methoxy-phenyl)-nicotinamide]
- IC50 [1]: 0.266 µM
- IC50 [2]: 0.007 µM

SMILES: COc1ccc(-c2cccnc2C(=O)N(CCc2c[nH]c3ccc(F)cc23)CC2CC2)cn1 [Example 400, 6′-Methoxy-[3,3′]bipyridinyl-2-carboxylic acid cyclopropylmethyl-[2-(5-fluoro-1H-indol-3-yl)-ethyl]-amide]
- IC50 [1, 3]: 0.062 µM
- IC50 [2, 3]: 0.011 µM

SMILES: Cc1cncc(-c2cccnc2C(=O)N(CCc2c[nH]c3ccc(F)cc23)CC2CC2)c1 [Example 402, 5′-Methyl-[3,3′]bipyridinyl-2-carboxylic acid cyclopropylmethyl-[2-(5-fluoro-1H-indol-3-yl)-ethyl]-amide]
- IC50 [1, 3]: 0.7 µM
- IC50 [2, 3]: 0.072 µM

SMILES: O=C(c1ncccc1-c1cc(Cl)cnc1F)N(CCc1c[nH]c2ccc(F)cc12)CC1CC1 [Example 403, 5′-Chloro-2′-fluoro-[3,3′]bipyridinyl-2-carboxylic acid cyclopropylmethyl-[2-(5-fluoro-1H-indol-3-yl)-ethyl]-amide]
- IC50 [1, 3]: 3.83 µM
- IC50 [2, 3]: 0.23 µM

SMILES: O=C(c1ncccc1-c1cnc2ccccc2c1)N(CCc1c[nH]c2ccc(F)cc12)CC1CC1 [Example 404, 3-Quinolin-3-yl-pyridine-2-carboxylic acid cyclopropylmethyl-[2-(5-fluoro-1H-indol-3-yl)-ethyl]-amide]
- IC50 [1, 3]: 0.058 µM
- IC50 [2, 3]: 0.012 µM
